Common to all, as to assay: Post-emergence efficacy, Method A
Common to all, as to format: in vivo

Test [1] has as its system Euphorbia heterophylla (EPHHL). Particulars: 500 g/Ha, 100=total damage to plant, 0=no damage, evaluated after 7 and 14 days, read-out: Control of weed species after post-emergence application, EPHHL.
Test [2] relates to Digitaria sanguinalis (DIGSA). Particulars: 500 g/Ha, 100=total damage to plant, 0=no damage, evaluated after 7 and 14 days, read-out: Control of weed species after post-emergence application, DIGSA.
Test [3] deals with Chenopodium album (CHEAL). Particulars: 500 g/Ha, 100=total damage to plant, 0=no damage, evaluated after 7 and 14 days, read-out: Control of weed species after post-emergence application, CHEAL.
Test [4] concerns Echinochloa crus-galli (ECHCG). The conditions noted are these: 500 g/Ha, 100=total damage to plant, 0=no damage, evaluated after 7 and 14 days, read-out: Control of weed species after post-emergence application, ECHCG.
The test system of the next test is Lolium perenne (LOLPE). Particulars: 500 g/Ha, 100=total damage to plant, 0=no damage, evaluated after 7 and 14 days, read-out: Control of weed species after post-emergence application, LOLPE.
The next test concerns Setaria faberi (SETFA). Particulars: 500 g/Ha, 100=total damage to plant, 0=no damage, evaluated after 7 and 14 days, read-out: Control of weed species after post-emergence application, SETFA.
For test [5], the system named is Amaranthus palmeri (AMAPA). The conditions noted are these: 500 g/Ha, 100=total damage to plant, 0=no damage, evaluated after 7 and 14 days, read-out: Control of weed species after post-emergence application, AMAPA.
Test [6] relates to Ipomoea hederacea (IPOHE). Particulars: 500 g/Ha, 100=total damage to plant, 0=no damage, evaluated after 7 and 14 days, read-out: Control of weed species after post-emergence application, IPOHE.
For the next test, the system named is Eleusine indica (ELEIN). Particulars: 500 g/Ha, 100=total damage to plant, 0=no damage, evaluated after 7 and 14 days, read-out: Control of weed species after post-emergence application, ELEIN.

On to `O=C(O)CC[n+]1ccc(-c2nc(O)ns2)cc1` [Compound A97, 3-[4-(3-hydroxy-1,2,4-thiadiazol-5-yl)pyridin-1-ium-1-yl]propanoic acid bromide], for which the pest or weed control at 500 g/ha in [1] stood at 10%; in test [2], 0%; in [3], 50%; in [4], 0%; in the test with Lolium perenne (LOLPE), 10%; in the test with Setaria faberi (SETFA), 10%. Besides, the pest or weed control at 500 g/ha is 0% in [5], 10% in [6] and 10% with Eleusine indica (ELEIN).

On to `O=C(O)C[n+]1ccc(-c2nc(O)ns2)cc1` [Compound A98], for which the pest or weed control at 500 g/ha was found to be 30% in test [1]; 70% in test [2]; 40% in [3]; 40% in test [4]; 0% in the test with Lolium perenne (LOLPE); 20% in the test with Setaria faberi (SETFA). The pest or weed control at 500 g/ha was found to be 50% in test [5], 10% in test [6] and 10% with Eleusine indica (ELEIN).

The record behind these values is US20220104493A1, “HERBICIDAL COMPOUNDS” (SYNGENTA CROP PROTECTION AG, priority 2019, published 2022).
